This is an account of results in BindingDB's records for doi:10.1021/acs.jmedchem.7b00359 (AstraZeneca, 2017).

pIC50: −log10 of the molar value. A value given as a limit tells only on which side of the number the result lay.

What is called pIC50 is the IC50 on a negative log10 scale, so that one unit is a factor of ten. A low value points to a high IC50.

One experiment deals with T1, Zinc finger and BTB domain-containing protein 16 (Homo sapiens, UniProt Q05516).
T1 sequence (Q05516 whole entry): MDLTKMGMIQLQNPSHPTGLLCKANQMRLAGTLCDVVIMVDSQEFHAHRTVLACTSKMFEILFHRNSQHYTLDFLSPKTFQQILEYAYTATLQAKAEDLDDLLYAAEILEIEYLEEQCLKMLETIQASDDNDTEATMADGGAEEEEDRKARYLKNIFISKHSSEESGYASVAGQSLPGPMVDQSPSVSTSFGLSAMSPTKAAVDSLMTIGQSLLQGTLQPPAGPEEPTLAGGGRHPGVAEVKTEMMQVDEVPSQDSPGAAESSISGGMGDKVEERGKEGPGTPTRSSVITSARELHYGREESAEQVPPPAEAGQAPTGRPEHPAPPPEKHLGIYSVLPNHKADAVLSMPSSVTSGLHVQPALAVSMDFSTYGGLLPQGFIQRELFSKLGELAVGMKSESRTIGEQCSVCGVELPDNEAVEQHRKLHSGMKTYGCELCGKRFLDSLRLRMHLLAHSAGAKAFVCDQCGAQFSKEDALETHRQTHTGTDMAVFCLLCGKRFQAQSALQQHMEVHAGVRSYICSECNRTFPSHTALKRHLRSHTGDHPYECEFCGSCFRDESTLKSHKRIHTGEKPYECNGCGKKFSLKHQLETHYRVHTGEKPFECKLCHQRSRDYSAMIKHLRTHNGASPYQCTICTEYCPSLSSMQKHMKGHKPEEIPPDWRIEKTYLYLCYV
Briefly: ChEBML_1665992. The source says:
(§1) Inhibition of GAL4 DNA binding domain fused PLZF BTB domain (unknown origin) expressed in HEK 293T/17 cells after 24 hrs by Bright-Glo luciferase cell reporter assay
The compound `N#Cc1cnn2c3cc(nc12)N1C[C@H](C[C@H]1CO)OC/C=C/COc1cc(cc2c1NC(=O)CC2)N3` gave a pIC50 below 4.52.

The target in the next experiment is T1, Zinc finger and BTB domain-containing protein 16. The experiment is described as §1.
`O=C(O)C[C@@H]1C[C@H]2CN1c1cc(n3ncc(Cl)c3n1)Nc1cc3c(c(c1)OC/C=C/CO2)N(CC1CC(F)(F)C1)C(=O)CC3` had a pIC50 below 4.52.

In turn, `COc1cccc(CN2C(=O)CCc3cc4cc(c32)OC/C=C/CO[C@H]2C[C@@H](CO)N(C2)c2cc(n3ncc(C#N)c3n2)N4)c1` had a pIC50 below 4.52.

Turning to `O=C1CCc2cc3cc(c2N1)OCCCCO[C@H]1C[C@@H](CO)N(C1)c1cc(n2nccc2n1)N3`, the pIC50 was below 4.52. With `Cc1ccccc1CN1C(=O)CCc2cc3cc(c21)OC/C=C/CO[C@H]1C[C@@H](CO)N(C1)c1cc(n2ncc(Cl)c2n1)N3`, the pIC50 was below 4.52.

`COc1cccc(CN2C(=O)CCc3cc4cc(c32)OC/C=C/CO[C@H]2C[C@@H](CO)N(C2)c2cc(n3ncc(Cl)c3n2)N4)c1` had a pIC50 below 4.52.

On to `O=C1CCc2cc3cc(c2N1CC1CC(F)(F)C1)OC/C=C/CO[C@H]1C[C@@H](CO)N(C1)c1cc(n2ncc(Cl)c2n1)N3`, for which the pIC50 was below 4.52. In turn, `O=C1CCc2cc3cc(c2N1CC1CC1)OC/C=C/CO[C@H]1C[C@@H](CO)N(C1)c1cc(n2ncc(Cl)c2n1)N3` showed a pIC50 below 4.52. In turn, `N#Cc1cnn2c3cc(nc12)N1C[C@H](C[C@H]1CO)OCCCCOc1cc(cc2c1NC(=O)CC2)N3` gave a pIC50 below 4.52. On the same count and under the same terms, to `O=C1CCc2cc3cc(c2N1)OC/C=C/CO[C@H]1C[C@@H](CO)N(C1)c1cc(n2ncc(Cl)c2n1)N3` belongs below 4.52. Regarding `O=C1CCc2cc3cc(c2N1CCCN1CCOCC1)OC/C=C/CO[C@H]1C[C@@H](CO)N(C1)c1cc(n2ncc(Cl)c2n1)N3`, the negative logarithm of the IC50 (pIC50) was below 4.52. `O=C1CCc2cc3cc(c2N1Cc1ccncc1)OC/C=C/CO[C@H]1C[C@@H](CO)N(C1)c1cc(n2ncc(Cl)c2n1)N3` had a pIC50 below 4.52. Compound `CN1C(=O)CCc2cc3cc(c21)OC/C=C/CO[C@H]1C[C@@H](CO)N(C1)c1cc(n2ncc(Cl)c2n1)N3` had a pIC50 below 4.52. Consider `N#Cc1cnn2c3cc(nc12)N1CC[C@@H](C1)OCCCCOc1cc(cc2c1NC(=O)CC2)N3`, for which the pIC50 is below 4.52. The same measure, in the same setting: to `Cc1ccc(CN2C(=O)CCc3cc4cc(c32)OC/C=C/CO[C@H]2C[C@@H](CO)N(C2)c2cc(n3ncc(Cl)c3n2)N4)cc1` belongs below 4.52.

Compound `O=C1CCc2cc3cc(c2N1)OCCCCO[C@H]1C[C@@H](CO)N(C1)c1cc(n2ncc(Cl)c2n1)N3` showed a pIC50 below 4.52.

The compound `O=C1CCc2cc3cc(c2N1Cc1ccccc1)OC/C=C/CO[C@H]1C[C@@H](CO)N(C1)c1cc(n2ncc(Cl)c2n1)N3` gave a pIC50 below 4.52.
